These results are taken from the supplement of paper PMC11208160.

The data set in a line: recombinant barcode read abundance after kanamycin selection (control-corrected) (log10(CPM+1)); higher = more efficient recombination; sequences stand for … in AGTGCAGAGAAAATCGGCCAGTTTTCTCTGCCTGCAGTCCGCATGCCGT…AGATTTATGCAGCGGACTGCCTTTCTCCCAAAGTGATAAACCGGACAGTATCATGGACCGGTTTTCCCGGTAATCCGTATTTGCAAGGTTGGTTTCACT; site = the 11-nt target. The method, boiled down: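 Recombination efficiency comes from barcode counts at recombinant junctions, converted to counts per million, averaged and corrected against the control. Values appear as log10(CPM+1). They were obtained from a pooled E. coli screen in which each oligo paired a target with an IS621 bridge RNA target-binding loop, and cells were plated in duplicate on chloramphenicol/ampicillin LB agar or on chloramphenicol/ampicillin/kanamycin with 0.1 mM IPTG.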
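Note: IS621 recombinase and bridge RNA in Escherichia coli cells.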

In the case of “TCTAGAGCTTGGGTTCTAACCTGTTGCCT (site TCTAGAGCTAG)”, the “recombinant barcode read abundance (log10)” value amounted to 0.0183.

Consider “TCTAGAGCTTGGGTTCTAACCTGTTGCCT (site TCTAGATCTAG)”, for which the “recombinant barcode read abundance (log10)” value amounted to 0.339.

On to “TCTAGGACTTGGGTTCTAACCTGTTGCAA (site CGACAATCTAA)”, for which the “recombinant barcode read abundance (log10)” value stood at 0.29.

Regarding “TCTAGGACTTGGGTTCTAACCTGTTGCAA (site TCTAGGACTTT)”, the “recombinant barcode read abundance (log10)” value worked out at 0.52.

As to “TCTCACGCTTGGGTTCTAACCTGTTGCCT (site TCGCACGCTAG)”, the “recombinant barcode read abundance (log10)” value worked out at 0.0772.

Consider “TCTCACGCTTGGGTTCTAACCTGTTGCCT (site TCTCACGCTAG)”, for which the “recombinant barcode read abundance (log10)” value came to 0.964.

As to “TCTCACTCTTGGGTTCTAACCTGTTGCCT (site TCACACTCTAG)”, the “recombinant barcode read abundance (log10)” value came to 0.0111.

Consider “TCTCACTCTTGGGTTCTAACCTGTTGCCT (site TCCCACTCTAG)”, for which the “recombinant barcode read abundance (log10)” value was determined as 0.504.

Take “TCTCACTCTTGGGTTCTAACCTGTTGCCT (site TCGCACTCTAG)”: the “recombinant barcode read abundance (log10)” value stood at 0.0924.

As to “TCTCACTCTTGGGTTCTAACCTGTTGCCT (site TCTCACTCTAG)”, the “recombinant barcode read abundance (log10)” value was 1.54.

Turning to “TCTCATGCTTGGGTTCTAACCTGTTGCAT (site GACGGCACTCC)”, the “recombinant barcode read abundance (log10)” value was 0.0135.

For “TCTCATGCTTGGGTTCTAACCTGTTGCAT (site TCTCATGCTAT)”, the “recombinant barcode read abundance (log10)” value turned out to be 0.224.

For “TCTCGGCCTTGGGTTCTAACCTGTTGCCT (site TCTCAGCCTAG)”, the “recombinant barcode read abundance (log10)” value turned out to be 0.0701.

Take “TCTCGGCCTTGGGTTCTAACCTGTTGCCT (site TCTCCGCCTAG)”: the “recombinant barcode read abundance (log10)” value is 0.394.

Regarding “TCTCGGCCTTGGGTTCTAACCTGTTGCCT (site TCTCGGCCTAG)”, the “recombinant barcode read abundance (log10)” value came out at 0.202.

As for “TCTCGGCCTTGGGTTCTAACCTGTTGCCT (site TCTCTGCCTAG)”, the “recombinant barcode read abundance (log10)” value was 0.0561.

On to “TCTGACTCTTGGGTTCTAACCTGTTGCAT (site TCTAATTCTAT)”, for which the “recombinant barcode read abundance (log10)” value stood at 0.0501.

Take “TCTGACTCTTGGGTTCTAACCTGTTGCAT (site TCTGACTCTAT)”: the “recombinant barcode read abundance (log10)” value was determined as 1.59.

On to “TCTGAGTCTTGGGTTCTAACCTGTTGCTG (site GCTGAGGCTCA)”, for which the “recombinant barcode read abundance (log10)” value amounted to 0.141.

Consider “TCTGAGTCTTGGGTTCTAACCTGTTGCTG (site TCTGAGTCTCA)”, for which the “recombinant barcode read abundance (log10)” value is 0.858.

As to “TCTGGAGCTTGGGTTCTAACCTGTTGCAG (site CCAGGAGCTCT)”, the “recombinant barcode read abundance (log10)” value is 0.0636.

Consider “TCTGGAGCTTGGGTTCTAACCTGTTGCAG (site TCTGGAGCTCT)”, for which the “recombinant barcode read abundance (log10)” value is 0.938.

Take “TCTGGGGCTTGGGTTCTAACCTGTTGCCG (site TCTGGGGCTCA)”: the “recombinant barcode read abundance (log10)” value was determined as 0.536.

Turning to “TCTGGGGCTTGGGTTCTAACCTGTTGCCG (site TCTGGGGCTCC)”, the “recombinant barcode read abundance (log10)” value worked out at 1.44.

Regarding “TCTGGGGCTTGGGTTCTAACCTGTTGCCG (site TCTGGGGCTCG)”, the “recombinant barcode read abundance (log10)” value is 1.89.

“TCTGGGGCTTGGGTTCTAACCTGTTGCCG (site TCTGGGGCTCT)”: the “recombinant barcode read abundance (log10)” value was found to be 0.618.

On to “TCTGGGGCTTGGGTTCTAACCTGTTGCTG (site TCTGGGGCTCA)”, for which the “recombinant barcode read abundance (log10)” value was 2.04.

Consider “TCTGGGGCTTGGGTTCTAACCTGTTGCTG (site TCTGGGGCTCC)”, for which the “recombinant barcode read abundance (log10)” value was 0.216.

For “TCTGGGGCTTGGGTTCTAACCTGTTGCTG (site TCTGGGGCTCG)”, the “recombinant barcode read abundance (log10)” value was 0.792.

“TCTGGGGCTTGGGTTCTAACCTGTTGCTG (site TCTGGGGCTCT)”: the “recombinant barcode read abundance (log10)” value was 0.936.

Consider “TCTTAGGCTTGGGTTCTAACCTGTTGCGT (site TCCTAGGCTGC)”, for which the “recombinant barcode read abundance (log10)” value came to 0.21.

As to “TCTTAGGCTTGGGTTCTAACCTGTTGCGT (site TCTTAGGCTAC)”, the “recombinant barcode read abundance (log10)” value was 1.63.

With “TCTTATACTTGGGTTCTAACCTGTTGCGT (site TCTTATACTAC)”, the “recombinant barcode read abundance (log10)” value turned out to be 0.403.

“TCTTATACTTGGGTTCTAACCTGTTGCGT (site TCTTATACTAT)”: the “recombinant barcode read abundance (log10)” value came to 0.

In the case of “TCTTATTCTTGGGTTCTAACCTGTTGCCT (site TCTGATTCTCG)”, the “recombinant barcode read abundance (log10)” value was 0.062.

As to “TCTTATTCTTGGGTTCTAACCTGTTGCCT (site TCTTATTCTAG)”, the “recombinant barcode read abundance (log10)” value was determined as 0.0342.

On to “TCTTGGACTTGGGTTCTAACCTGTTGCTG (site TCTTGGACTAA)”, for which the “recombinant barcode read abundance (log10)” value is 0.159.

As for “TCTTGGACTTGGGTTCTAACCTGTTGCTG (site TCTTGGACTCA)”, the “recombinant barcode read abundance (log10)” value was determined as 0.0828.

As to “TCTTGGACTTGGGTTCTAACCTGTTGCTG (site TCTTGGACTGA)”, the “recombinant barcode read abundance (log10)” value came to 0.174.

For the sequence “TCTTGGACTTGGGTTCTAACCTGTTGCTG (site TCTTGGACTTA)”, the “recombinant barcode read abundance (log10)” value is 0.0733.

In the case of “TCTTGTTCTTGGGTTCTAACCTGTTGCCT (site ACTTGTTCTAG)”, the “recombinant barcode read abundance (log10)” value was 0.383.

Regarding “TCTTGTTCTTGGGTTCTAACCTGTTGCCT (site CCTTGTTCTAG)”, the “recombinant barcode read abundance (log10)” value was 0.179.

As for “TCTTGTTCTTGGGTTCTAACCTGTTGCCT (site GCTTGTTCTAG)”, the “recombinant barcode read abundance (log10)” value worked out at 0.0895.

Turning to “TCTTGTTCTTGGGTTCTAACCTGTTGCCT (site TCTTGTTCTAG)”, the “recombinant barcode read abundance (log10)” value was 0.145.

Turning to “TGAAATACTTGGGTTCTAACCTGTTGCCT (site TGAAATACTAG)”, the “recombinant barcode read abundance (log10)” value came out at 0.232.

Take “TGAAATACTTGGGTTCTAACCTGTTGCCT (site TGAACTACTAG)”: the “recombinant barcode read abundance (log10)” value came out at 0.0246.

Regarding “TGAAATACTTGGGTTCTAACCTGTTGCCT (site TGAAGTACTAG)”, the “recombinant barcode read abundance (log10)” value came to 0.

In the case of “TGAAATACTTGGGTTCTAACCTGTTGCCT (site TGAATTACTAG)”, the “recombinant barcode read abundance (log10)” value is 0.00965.

For “TGAAATGCTTGGGTTCTAACCTGTTGCCT (site TGAAATGCTAG)”, the “recombinant barcode read abundance (log10)” value was 0.329.

Regarding “TGAAATGCTTGGGTTCTAACCTGTTGCCT (site TGACATGCTAG)”, the “recombinant barcode read abundance (log10)” value is 0.0158.

Regarding “TGAAATGCTTGGGTTCTAACCTGTTGCCT (site TGAGATGCTAG)”, the “recombinant barcode read abundance (log10)” value came out at 0.256.

With “TGAAATGCTTGGGTTCTAACCTGTTGCCT (site TGATATGCTAG)”, the “recombinant barcode read abundance (log10)” value came out at 0.288.

Take “TGAACGCCTTGGGTTCTAACCTGTTGCCT (site AGTACGCCTAG)”: the “recombinant barcode read abundance (log10)” value was determined as 0.0861.

As for “TGAACGCCTTGGGTTCTAACCTGTTGCCT (site TGAACGCCTAG)”, the “recombinant barcode read abundance (log10)” value worked out at 0.39.

For “TGAACGTCTTGGGTTCTAACCTGTTGCCT (site TGAAAGTCTAG)”, the “recombinant barcode read abundance (log10)” value was 0.232.

For the sequence “TGAACGTCTTGGGTTCTAACCTGTTGCCT (site TGAACGTCTAG)”, the “recombinant barcode read abundance (log10)” value is 0.384.

As for “TGAACGTCTTGGGTTCTAACCTGTTGCCT (site TGAAGGTCTAG)”, the “recombinant barcode read abundance (log10)” value was 0.0344.

Turning to “TGAACGTCTTGGGTTCTAACCTGTTGCCT (site TGAATGTCTAG)”, the “recombinant barcode read abundance (log10)” value worked out at 0.378.

Consider “TGAACTACTTGGGTTCTAACCTGTTGCCT (site TGAAATACTAG)”, for which the “recombinant barcode read abundance (log10)” value is 0.0445.

For the sequence “TGAACTACTTGGGTTCTAACCTGTTGCCT (site TGAACTACTAG)”, the “recombinant barcode read abundance (log10)” value worked out at 0.192.

Turning to “TGAACTACTTGGGTTCTAACCTGTTGCCT (site TGAAGTACTAG)”, the “recombinant barcode read abundance (log10)” value came to 0.0835.

In the case of “TGAACTACTTGGGTTCTAACCTGTTGCCT (site TGAATTACTAG)”, the “recombinant barcode read abundance (log10)” value was 0.065.

In the case of “TGAAGTCCTTGGGTTCTAACCTGTTGCGG (site CGACGTCCTCC)”, the “recombinant barcode read abundance (log10)” value came out at 0.0219.

For the sequence “TGAAGTCCTTGGGTTCTAACCTGTTGCGG (site TGAAGTCCTCC)”, the “recombinant barcode read abundance (log10)” value is 1.25.

For “TGACAGGCTTGGGTTCTAACCTGTTGCAG (site GTACAGGCTCT)”, the “recombinant barcode read abundance (log10)” value was determined as 0.278.

As for “TGACAGGCTTGGGTTCTAACCTGTTGCAG (site TGACAGGCTCT)”, the “recombinant barcode read abundance (log10)” value came out at 1.88.

As for “TGACCAGCTTGGGTTCTAACCTGTTGCCT (site TGACCAGCTAG)”, the “recombinant barcode read abundance (log10)” value is 1.05.

Turning to “TGACCAGCTTGGGTTCTAACCTGTTGCCT (site TGAGAAGCTAG)”, the “recombinant barcode read abundance (log10)” value worked out at 0.0639.

“TGACCTTCTTGGGTTCTAACCTGTTGCCT (site TGACCTTCTAG)”: the “recombinant barcode read abundance (log10)” value is 0.526.

Consider “TGACCTTCTTGGGTTCTAACCTGTTGCCT (site TGACGTTCTAG)”, for which the “recombinant barcode read abundance (log10)” value turned out to be 0.0226.

“TGACGCTCTTGGGTTCTAACCTGTTGCCT (site TGACGCTCTAG)”: the “recombinant barcode read abundance (log10)” value is 0.905.

Consider “TGACGCTCTTGGGTTCTAACCTGTTGCCT (site TGCCGCTCTAG)”, for which the “recombinant barcode read abundance (log10)” value worked out at 0.149.

Turning to “TGACGCTCTTGGGTTCTAACCTGTTGCCT (site TGGCGCTCTAG)”, the “recombinant barcode read abundance (log10)” value was 0.323.

With “TGACGCTCTTGGGTTCTAACCTGTTGCCT (site TGTCGCTCTAG)”, the “recombinant barcode read abundance (log10)” value came to 0.433.

As to “TGACTACCTTGGGTTCTAACCTGTTGCCT (site TCGCTACCTAG)”, the “recombinant barcode read abundance (log10)” value came to 0.0696.

In the case of “TGACTACCTTGGGTTCTAACCTGTTGCCT (site TGACTACCTAG)”, the “recombinant barcode read abundance (log10)” value was found to be 0.838.

Take “TGACTAGCTTGGGTTCTAACCTGTTGCCT (site TGACTAGCTAG)”: the “recombinant barcode read abundance (log10)” value is 0.176.
